{
  "source": "paper PMC6668147",
  "about": "“Ancient role of vasopressin/oxytocin-type neuropeptides as regulators of feeding revealed in an echinoderm” (BMC Biology, 2019)",
  "key": {"[1]": {"tested_on": "A. rubens VP/OT-type receptor", "experiment": "Ca2+-induced luminescence in CHO-K1/G5A cells expressing the A. rubens VP/OT-type receptor and Gα16", "assay_type": "cell-based, Asterias rubens", "conditions": "10^−4 M; Wilcoxon signed-rank test vs basal media; n = 9", "from_the_text": "A pBluescript SKII (+) vector containing the A. rubens VP/OT-type receptor cDNA as an insert (see above) was used as a template to amplify by PCR the open reading frame of the VP/OT-type receptor. To accomplish this, the oligonucleotides 5′-ggatccCACCATGACGCCCTC-3′ (upstream) and 5′-cccgggCTACATGTGAGCGGAAGCA-3′ (downstream) were used as primers and the PCR product was subcloned into the eukaryotic expression vector pcDNA 3.1+, which had been cut with the restriction enzymes BamHI and […]. For the upstream primer, a partial Kozak translation initiation sequence (CACC) was introduced before the start codon to optimise the initiation of translation.\nFor this assay, Chinese hamster ovary (CHO-K1) cells stably expressing the Ca^2+-sensitive bioluminescent GFP-aequorin fusion protein—G5A (CHO-K1/G5A cells) are co-transfected with plasmids containing a G-protein coupled receptor cDNA insert and plasmids containing an insert encoding the promiscuous G-protein Gα16. If a candidate ligand activates the expressed receptor, the promiscuous Gα16 protein triggers the activation of the IP3 signalling pathway, causing an increase in intracellular Ca^2+ and luminescence. […] Asterotocin at concentrations ranging from 10^−4 to 10^−12 M (n = 3) was pipetted into the wells of clear-bottomed 96-well plates (Sigma-Aldrich), then a FLUOstar Omega Plate Reader (BMG LABTECH) was used to inject a fixed amount of transfected CHO-K1 cells into each well sequentially, and luminescence was measured for a 35-s period after injection. Luminescence measurements were normalised to the maximum response obtained in each experiment (100%) and the response obtained with the vehicle media (0%). […] The half maximal effective concentration (EC50) was calculated from the dose-response curve in Prism 6.0c. […] A Wilcoxon signed-rank test was performed to compare luminescence of cells exposed to asterotocin, vasopressin, oxytocin and NGFFYamide (at 10^−4 M) with luminescence of cells in basal media (control)."}, "mammals [2]": {"tested_on": "mammals", "conditions": "cited from earlier work", "from_the_text": "Physiological processes and behaviour are controlled and regulated by a huge variety of neuronally secreted peptide signalling molecules (neuropeptides), which typically exert their effects on target cells by binding to cognate G-protein coupled receptors (GPCRs). Amongst the most intensely studied neuropeptides are vasopressin (VP) and oxytocin (OT). VP and OT are structurally related neuropeptides that were originally discovered based on their peripheral actions as pituitary hormones in mammals. VP is a cyclic and amidated nonapeptide (CYFQNCPRG-NH2; with a disulphide bridge betwee ..."}, "octopus rectum": {"tested_on": "octopus rectum", "conditions": "in vitro; cited from earlier work", "from_the_text": "What about in the protostome branch of the Bilateria? […] In the cephalopod mollusc Octopus vulgaris, the VP/OT-type signalling system has been characterised in detail and comprises two VP/OT-type neuropeptides, octopressin (OP) and cephalotocin (CT), and three cognate receptors (OPR, CTR1, CTR2). Furthermore, OP is expressed in the regions of the octopus nervous system involved in the control o ..."}, "mammals [3]": {"tested_on": "mammals", "conditions": "cited from earlier work", "from_the_text": "Our discovery that asterotocin has such striking feeding-related effects in starfish provides a basis to examine if VP/OT-type neuropeptides are likewise involved in the regulation of feeding-associated processes in other taxa. Currently, little is known about the physiological roles of VP/OT-type neuropeptides in other echinoderms. […] This effect of echinotocin as a muscle contractant is consistent with the myoexcitatory eff ...", "remark": "listed apart in the source"}, "[4]": {"tested_on": "cardiac stomach preparations from A. rubens", "experiment": "Relaxation of in vitro cardiac stomach preparations", "design": "species or system Asterias rubens", "conditions": "10^−7 M, KCl pre-contraction", "method": "To investigate if asterotocin affects muscle contractility in A. rubens, synthetic asterotocin (custom synthesised by PPR Ltd., Fareham, Hampshire, UK) was tested on three in vitro preparations: the cardiac stomach, apical muscle and tube feet. These three preparations have been used to examine the effects of other neuropeptides, and the methods employed have been described in detail previously. […] Therefore, the effects of asterotocin on cardiac stomach and apical muscle preparations were examined in more detail.\nCardiac stomach preparations from 16 starfish (8–13.5 cm in diameter) were incubated at 11 °C in an aerated organ bath containing artificial seawater with 3 × 10^−2 M added KCl. This induces sustained contraction of the cardiac stomach, which facilitates recording of the effects of neuropeptides that act as muscle relaxants. The contractile state of preparations was monitored using a high-grade isotonic transducer (model 60-3001; Harvard Apparatus, Cambridge, UK) connected to a Goerz SE 120 chart recorder (Recorderlab, Sutton, Surrey, UK) or using a high-grade isotonic transducer (MLT0015; ADInstruments Ltd., Oxford, UK) connected to data acquisition hardware (PowerLab 2/26, ADInstruments Ltd.) via a bridge amplifier (FE221 Bridge Amp, ADInstruments Ltd.). The output from the PowerLab was recorded using LabChart (v8.0.7) software installed on a laptop computer (Lenovo E540, Windows 7 Professional). To obtain representative images of the effects of asterotocin, traces were exported from LabChart into Adobe Photoshop and the function ‘Select and Mask’ was utilised to remove the background grid pattern.\nThe percentage relaxation at each concentration was calculated relative to the maximal relaxing effect produced by asterotocin in each preparation. […] For these experiments, the effect of 10^−7 M S2 was defined as 100%, and the effect of 10^−7 M asterotocin was calculated as a percentage of the effect of 10^−7 M S2. The relaxing effects of asterotocin and S2 on cardiac stomach preparations were analysed statistically using the Mann-Whitney U test."}, "A. rubens [5]": {"tested_on": "A. rubens", "experiment": "In vivo cardiac stomach eversion, dose dependence", "design": "species or system Asterias rubens", "conditions": "10 μl of 10^−3 M S2 into perivisceral coelom; n = 5", "method": "During feeding in A. rubens, the cardiac stomach is everted out of the mouth over the digestible soft tissue of prey (e.g. mussels), and to accomplish this, the cardiac stomach must be relaxed. […] First, a pilot experiment was performed using 30 starfish (diameter 6.4–7.5 cm) that had been starved for 1 week to normalise their physiological status. Then animals were injected with different doses of asterotocin (10 μl of 10^−6–10^−3 M; n = 5 for each dose) or with 10 μl of water (negative control; n = 5) or with 10 μl of 10^−3 M S2 (positive control; n = 5). The animals were injected at a site located in the aboral body wall of an arm proximal to the junction with the central disc and adjacent to the madreporite. Care was taken to ensure that the tip of a Hamilton syringe used for injections was pushed through the body wall into the perivisceral coelom but not too deep so as to avoid injecting into the digestive organs. The doses of asterotocin injected were informed by our analysis of the volume of the perivisceral coelomic fluid in A. rubens. […] Following injection, the starfish were placed in a glass vessel containing seawater so that the mouth of the animal could be observed from below."}, "A. rubens [6]": {"tested_on": "A. rubens", "experiment": "Body posture / arm flexion after injection", "assay_type": "in vivo, Asterias rubens", "conditions": "S2, compared with asterotocin"}, "A. rubens [7]": {"tested_on": "A. rubens", "experiment": "Righting behaviour following 4-week starvation", "assay_type": "in vivo, Asterias rubens", "method": "To examine the specificity of the effects of asterotocin on starfish righting behaviour, an experiment was performed where the righting time of starfish (5.5–9.6 cm in diameter; starved for 4 weeks prior to testing) was measured before injection (n = 60; pooled from the three treatment groups) and after injection with 5 μl 10^−3 M asterotocin (n = 20) or 5 μl 10^−3 M S2 (n = 20) or 5 μl distilled water (n = 20). The time taken to right in seconds as well as the percentage difference between righting with and without injection was calculated. The percentage time difference between righting with and without injection in water-injected, asterotocin-injected and S2-injected animals was determined and plotted as a separated box and whiskers graph in Prism 6 (GraphPad 6). The effect of neuropeptides on righting behaviour was analysed statistically using the Mann-Whitney U test or a one-way ANOVA test with a post hoc Dunnett’s multiple comparisons test."}, "[8]": {"tested_on": "cardiac stomach preparations from A. rubens", "conditions": "in vitro; cited from earlier work", "method": "Therefore, it was of interest here to investigate the effects of asterotocin on muscle preparations from A. rubens. […] The percentage relaxation at each concentration was calculated relative to the maximal relaxing effect produced by asterotocin in each preparation. To enable the assessment of the magnitude of the relaxing effect of asterotocin on cardiac stomach, experiments were performed to compare the effect asterotocin with the effect of the neuropeptide SALMFamide-2 (S2; […]-NH2), which has been shown previously to cause relax ..."}, "A. rubens [9]": {"tested_on": "A. rubens", "conditions": "cited from earlier work", "from_the_text": "Starfish feed by firstly prying apart the bivalve shells of prey (e.g. mussels) with their tube feet and then […] cardiac stomach out of their mouth and over the exposed digestible soft tissues. In order for the cardiac stomach to be everted, it must be in a relaxed state, and therefore, neuropeptides that cause cardiac stomach relaxation in vitro are potential mediators of eversion in vivo."}, "insects": {"tested_on": "insects", "conditions": "cited from earlier work", "from_the_text": "Thus, the evolutionary origin of at least 30 neuropeptide families (including VP/OT-type) can be traced back to the bilaterian common ancestor of deuterostomes (vertebrates and invertebrate chordates, hemichordates, echinoderms) and protostomes (e.g. arthropods, nematodes, molluscs, annelids). Definitive evidence of the antiquity of VP/OT-type neuropeptides was first obtained with the purification and sequencing of VP/OT-type neuropeptides from insect and molluscan species [[8], ..."}},
  "note": "Entries after “also recorded” stand apart in the source; their conditions may differ. Read-outs that look alike come from different tables or passages of the source.",
  "data": [
    {"substance": "CYFQNCPRG-NH2 (disulfide) [vasopressin, human vasopressin; cyclic amidated nonapeptide (…-NH2)]", "values": [
      {"measurement": "receptor activation at highest concentration tested, in words", "setting": "[1]", "result": "did not cause significant receptor activation; also recorded: not significantly higher than the basal media control"},
      {"measurement": "blood pressure, in words", "setting": "mammals [2]", "result": "increases blood pressure"},
      {"measurement": "diuresis, in words", "setting": "mammals [2]", "result": "acts as an antidiuretic"}
    ]},
    {"substance": "octopressin", "values": [
      {"measurement": "effect on rectum, in words", "setting": "octopus rectum", "result": "myoexcitatory effects on in vitro preparations of the octopus rectum"}
    ]},
    {"substance": "CYIQNCPLG-NH2 (disulfide) [oxytocin, human oxytocin (…-NH2)]", "values": [
      {"measurement": "receptor activation at highest concentration tested, in words", "setting": "[1]", "result": "did not cause significant receptor activation; also recorded: not significantly higher than the basal media control"},
      {"measurement": "effect on feeding, in words", "setting": "mammals [3]", "result": "inhibits feeding"},
      {"measurement": "uterine contraction and lactation, in words", "setting": "mammals [2]", "result": "causes uterine contraction and lactation"}
    ]},
    {"substance": "SGPYSFNSGLTF-NH2 [S2, SALMFamide neuropeptide S2 (…-NH2)]", "values": [
      {"measurement": "relaxing effect, S2 effect defined as 100%", "setting": "[4]; replicate 1", "result": 100, "unit": "%"},
      {"measurement": "relaxing effect, S2 effect defined as 100%", "setting": "[4]; replicate 2", "result": 100, "unit": "%"},
      {"measurement": "relaxing effect, S2 effect defined as 100%", "setting": "[4]; replicate 3", "result": 100, "unit": "%"},
      {"measurement": "relaxing effect, S2 effect defined as 100%", "setting": "[4]; replicate 4", "result": 100, "unit": "%"},
      {"measurement": "relaxing effect, S2 effect defined as 100%", "setting": "[4]; replicate 5", "result": 100, "unit": "%"},
      {"measurement": "cardiac stomach eversion, in words", "setting": "A. rubens [5]", "result": "cardiac stomach eversion was not observed; also recorded: stomach eversion was not observed in any of the animals"},
      {"measurement": "posture change, in words", "setting": "A. rubens [6]", "result": "does not induce the changes in posture"},
      {"measurement": "significance of righting time vs water-injected, in words", "setting": "A. rubens [7]; 5 μl of 10^−3 M S2, n = 20", "result": "not significantly different"},
      {"measurement": "mean righting time", "setting": "A. rubens [7]; 5 μl of 10^−3 M, mean ± SEM, n = 20, water 341 ± 59 s, non-injected 345 ± 35 s", "result": "312 ± 40", "unit": "s"},
      {"measurement": "mean percentage righting time difference with vs without injection", "setting": "A. rubens [7]; 5 μl of 10^−3 M, n = 20, water − 1.8 ± 13%", "result": "15 ± 12", "unit": "%"},
      {"measurement": "effect on cardiac stomach preparations, in words", "setting": "[8]", "result": "acts as a relaxant of cardiac stomach preparations; also recorded: cause relaxation of A. rubens cardiac stomach preparations in vitro"},
      {"measurement": "cardiac stomach eversion, in words (earlier work)", "setting": "A. rubens [9]; 100 μl of 10^−3 M into perivisceral coelom", "result": "triggers cardiac stomach eversion"},
      {"measurement": "cardiac stomach eversion, in words (earlier work)", "setting": "A. rubens [9]; injected in vivo", "result": "induces cardiac stomach eversion when injected in vivo"}
    ]},
    {"substance": "NGFFYamide", "values": [
      {"measurement": "receptor activation at highest concentration tested, in words", "setting": "[1]", "result": "did not cause significant receptor activation; also recorded: not significantly higher than the basal media control"}
    ]},
    {"substance": "inotocin", "values": [
      {"measurement": "role in urine production, in words", "setting": "insects", "result": "VP-like role in regulating urine production"}
    ]}
  ]
}
